Like-named read-outs stand apart in the source and are kept apart here.
System: human prostatic adenocarcinoma cell line PC3
Experiment: Cell viability studies, PC3
Format: cell-based
Conditions: PC-3, PC3 cells
From the text: Subsequently, the dextran nanophores therapeutic potential in vitro and in vivo was investigated. […] This drug combination was selected, because it was previously reported that inhibition of the androgen receptor pathway leads to overactivation of the PI3K cascade, while suppression of PI3K upregulates androgen-receptor-mediated signaling. […] Doxorubicin and the MEK inhibitor AZD6244 (Selumetinib®) was co-loaded into dextran nanophores, since MEK is a downstream target of EGFR.

IC50 (FIG. 6, read-out: IC50): 6.5 µM | IC50 (FIG. 9D, read-out: doxorubicin concentration causing 50% reduction in the viability of PC3 cells): 8 µM
Compound: COc1cccc2c1C(=O)c1c(O)c3c(c(O)c1C2=O)C[C@@](O)(C(=O)CO)C[C@@H]3O[C@H]1C[C@H](N)[C@H](O)[C@H](C)O1 [doxorubicin]

Reference: patent US20200315981A1, “COMPOSITIONS AND METHODS FOR NANOPARTICLE-BASED DRUG DELIVERY AND IMAGING” (Memorial Sloan Kettering Cancer Center, priority 2015, published 2020)
